Counter-ions that a name gives are not always drawn.

The test has as its target T1, MRGPRX2 (Homo sapiens, UniProt Q96LB1).
T1 sequence (Q96LB1 1-330): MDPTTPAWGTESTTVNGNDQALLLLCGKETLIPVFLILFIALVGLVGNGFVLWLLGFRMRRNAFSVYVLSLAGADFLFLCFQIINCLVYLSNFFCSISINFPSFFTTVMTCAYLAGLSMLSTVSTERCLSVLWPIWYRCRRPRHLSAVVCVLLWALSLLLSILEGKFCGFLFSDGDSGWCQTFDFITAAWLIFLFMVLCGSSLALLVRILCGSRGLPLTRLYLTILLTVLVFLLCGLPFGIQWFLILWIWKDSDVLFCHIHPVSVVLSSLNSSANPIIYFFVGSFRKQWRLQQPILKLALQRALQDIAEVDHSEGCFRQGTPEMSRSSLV
The experiment in a line: SPR, MRGPRX2 protein immobilised on CM5 chip. In kind it is binding.

Take `COC1=C[C@@H]2[C@@H]3Cc4ccc(OC)c(O)c4[C@]2(CCN3)CC1=O` [M-3, N-demethylsinomenine]: binding was put at a Kd of 7.58 µM.

`COC1=C[C@@H]2[C@@H]3Cc4ccc(OC)c(O)c4[C@]2(CCN3C)CC1=O` [SH, sinomenine hydrochloride]: the Kd is 0.681 µM.
